Tests used:
Cyclin H - CDK7 = Cyclin H - CDK7 (Homo sapiens, UniProt P50613); assay: Cyclin H - CDK7 kinase inhibition assay; format: biochemical; settings: [ATP] = 100 μM
Protocol: (§1) Compounds were tested in cyclin-CDK kinase assays and cytotoxicity assays against human tumour cell lines (72-h MTT assay) as previously described.

Cyclin E - CDK2 = Cyclin E - CDK2 (Homo sapiens, UniProt P24941); assay: Cyclin E - CDK2 kinase inhibition assay; format: biochemical; settings: [ATP] = 100 μM
Protocol: as §1

HT29 = assay: 72-h MTT cytotoxicity assay, HT29; format: cell-based; settings: HT-29, HT29 human tumour cell line
Protocol: as §1

Cyclin D1 - CDK4 = Cyclin D1 - CDK4 (Homo sapiens, UniProt P11802); assay: Cyclin D1 - CDK4 kinase inhibition assay; format: biochemical; settings: [ATP] = 100 μM
Cyclin D1 - CDK4, sequence (P11802 whole entry): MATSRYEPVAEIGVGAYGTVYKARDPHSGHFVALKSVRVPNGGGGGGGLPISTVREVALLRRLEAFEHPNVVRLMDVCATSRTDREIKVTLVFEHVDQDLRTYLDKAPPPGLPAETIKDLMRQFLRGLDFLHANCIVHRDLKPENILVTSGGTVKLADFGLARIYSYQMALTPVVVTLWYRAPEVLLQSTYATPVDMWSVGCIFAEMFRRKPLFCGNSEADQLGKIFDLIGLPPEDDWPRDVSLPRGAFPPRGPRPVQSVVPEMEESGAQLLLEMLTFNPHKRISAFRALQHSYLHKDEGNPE
Cyclin D1 - CDK4, sequence (P24385 whole entry partner): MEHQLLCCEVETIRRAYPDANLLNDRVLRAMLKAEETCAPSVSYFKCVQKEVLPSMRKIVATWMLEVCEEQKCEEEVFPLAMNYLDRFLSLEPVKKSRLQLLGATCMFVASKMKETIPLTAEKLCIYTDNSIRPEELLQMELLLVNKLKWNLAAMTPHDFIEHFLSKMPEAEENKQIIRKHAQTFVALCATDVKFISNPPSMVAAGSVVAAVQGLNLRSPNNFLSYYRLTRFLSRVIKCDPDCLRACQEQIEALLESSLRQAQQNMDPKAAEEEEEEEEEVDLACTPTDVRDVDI
Protocol: as §1

Saos-2 = assay: 72-h MTT cytotoxicity assay, Saos-2; format: cell-based; settings: Saos-2 human tumour cell line
Protocol: as §1

A549 = assay: 72-h MTT cytotoxicity assay, A549; format: cell-based; settings: A549 human tumour cell line
Protocol: as §1

Cyclin T - CDK9 = Cyclin T - CDK9 (Homo sapiens, UniProt P50750); assay: Cyclin T - CDK9 kinase inhibition assay; format: biochemical; settings: [ATP] = 100 μM
Cyclin T - CDK9, sequence (P50750 whole entry): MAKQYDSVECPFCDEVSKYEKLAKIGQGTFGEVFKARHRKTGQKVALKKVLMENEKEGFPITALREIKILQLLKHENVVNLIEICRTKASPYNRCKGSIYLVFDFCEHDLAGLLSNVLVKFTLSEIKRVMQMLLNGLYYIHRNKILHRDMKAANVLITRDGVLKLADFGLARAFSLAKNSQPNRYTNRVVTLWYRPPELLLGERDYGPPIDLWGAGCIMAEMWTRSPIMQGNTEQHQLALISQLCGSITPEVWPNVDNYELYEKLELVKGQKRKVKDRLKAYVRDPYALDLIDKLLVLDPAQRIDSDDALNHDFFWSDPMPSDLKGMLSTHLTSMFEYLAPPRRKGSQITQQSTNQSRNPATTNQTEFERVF
Cyclin T - CDK9, sequence (O60563 whole entry partner): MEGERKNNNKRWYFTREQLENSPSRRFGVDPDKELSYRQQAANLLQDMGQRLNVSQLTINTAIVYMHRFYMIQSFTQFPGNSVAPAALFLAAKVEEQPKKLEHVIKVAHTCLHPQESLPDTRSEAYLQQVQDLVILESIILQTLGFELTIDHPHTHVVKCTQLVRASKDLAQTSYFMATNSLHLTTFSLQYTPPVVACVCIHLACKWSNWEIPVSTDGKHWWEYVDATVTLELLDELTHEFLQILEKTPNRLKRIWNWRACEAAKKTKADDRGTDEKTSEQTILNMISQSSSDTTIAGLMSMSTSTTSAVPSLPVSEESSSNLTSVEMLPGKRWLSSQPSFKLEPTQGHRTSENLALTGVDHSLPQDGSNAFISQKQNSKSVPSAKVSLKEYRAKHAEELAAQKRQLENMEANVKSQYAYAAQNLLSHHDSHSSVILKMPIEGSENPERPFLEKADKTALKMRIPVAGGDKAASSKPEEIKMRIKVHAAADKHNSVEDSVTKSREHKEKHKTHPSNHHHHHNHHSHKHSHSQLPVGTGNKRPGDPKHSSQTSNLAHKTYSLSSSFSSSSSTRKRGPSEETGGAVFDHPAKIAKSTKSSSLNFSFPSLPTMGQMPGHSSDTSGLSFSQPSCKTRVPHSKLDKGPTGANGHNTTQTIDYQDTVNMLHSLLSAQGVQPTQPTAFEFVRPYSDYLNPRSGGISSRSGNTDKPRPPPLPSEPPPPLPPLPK
Protocol: as §1

Cyclin B - CDK1 = Cyclin B - CDK1 (Homo sapiens, UniProt P06493); assay: Cyclin B - CDK1 kinase inhibition assay; format: biochemical; settings: [ATP] = 100 μM
Cyclin B - CDK1, sequence (P06493 whole entry): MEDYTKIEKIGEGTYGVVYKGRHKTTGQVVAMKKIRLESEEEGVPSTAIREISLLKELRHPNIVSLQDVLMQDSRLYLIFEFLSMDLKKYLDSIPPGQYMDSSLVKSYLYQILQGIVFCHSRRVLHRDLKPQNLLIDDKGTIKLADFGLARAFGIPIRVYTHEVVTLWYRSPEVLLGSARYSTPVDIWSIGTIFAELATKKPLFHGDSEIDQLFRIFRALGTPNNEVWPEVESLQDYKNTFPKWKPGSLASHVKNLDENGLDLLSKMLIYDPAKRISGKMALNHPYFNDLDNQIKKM
Cyclin B - CDK1, sequence (P14635 whole entry partner): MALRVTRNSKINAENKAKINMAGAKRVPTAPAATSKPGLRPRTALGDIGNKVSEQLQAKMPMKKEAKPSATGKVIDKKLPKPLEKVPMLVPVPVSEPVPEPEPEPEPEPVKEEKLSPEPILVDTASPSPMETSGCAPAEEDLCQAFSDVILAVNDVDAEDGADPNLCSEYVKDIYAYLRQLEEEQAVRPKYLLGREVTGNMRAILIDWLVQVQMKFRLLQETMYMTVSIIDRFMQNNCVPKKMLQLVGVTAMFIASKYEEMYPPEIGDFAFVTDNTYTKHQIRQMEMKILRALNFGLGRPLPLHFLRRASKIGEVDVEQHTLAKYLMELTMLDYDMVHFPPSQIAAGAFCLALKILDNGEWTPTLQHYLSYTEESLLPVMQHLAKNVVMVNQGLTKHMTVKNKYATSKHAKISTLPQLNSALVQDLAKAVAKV
Protocol: as §1

Cyclin A - CDK2 = Cyclin A - CDK2 (Homo sapiens, UniProt P24941); assay: Cyclin A - CDK2 kinase inhibition assay; format: biochemical; settings: [ATP] = 100 μM
Protocol: as §1

Cyclin H - CDK7, sequence (P50613 whole entry): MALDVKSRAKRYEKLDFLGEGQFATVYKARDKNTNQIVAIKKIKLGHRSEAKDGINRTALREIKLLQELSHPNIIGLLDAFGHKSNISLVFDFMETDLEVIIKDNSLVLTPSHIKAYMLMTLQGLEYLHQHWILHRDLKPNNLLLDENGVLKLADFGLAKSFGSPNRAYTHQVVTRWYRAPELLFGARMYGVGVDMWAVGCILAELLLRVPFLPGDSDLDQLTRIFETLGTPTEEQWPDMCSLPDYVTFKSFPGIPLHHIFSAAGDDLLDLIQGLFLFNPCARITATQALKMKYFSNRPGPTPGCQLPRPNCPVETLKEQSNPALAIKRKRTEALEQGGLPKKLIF
Cyclin H - CDK7, sequence (P51946 whole entry partner): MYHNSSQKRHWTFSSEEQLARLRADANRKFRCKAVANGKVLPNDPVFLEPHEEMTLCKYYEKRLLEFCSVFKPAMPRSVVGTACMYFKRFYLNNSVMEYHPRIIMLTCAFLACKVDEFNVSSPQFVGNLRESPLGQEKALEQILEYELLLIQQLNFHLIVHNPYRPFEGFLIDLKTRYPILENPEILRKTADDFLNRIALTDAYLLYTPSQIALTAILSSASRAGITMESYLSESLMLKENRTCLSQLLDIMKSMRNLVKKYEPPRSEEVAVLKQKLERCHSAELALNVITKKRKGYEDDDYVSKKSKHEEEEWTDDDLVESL

IC50 (Cyclin H - CDK7) [µM] | IC50 (Cyclin E - CDK2) [µM] | IC50 (Cyclin D1 - CDK4) [µM] | IC50 (Cyclin T - CDK9) [µM] | IC50 (Cyclin B - CDK1) [µM] | IC50 (Cyclin A - CDK2) [µM] | Compound | IC50 (HT29) [µM] | IC50 (Saos-2) [µM] | IC50 (A549) [µM]
> 100 | 0.4 ± 0.1 | 9.2 ± 1.3 | 6.1 | 2.8 ± 0.7 | 4.2 ± 0.9 | Cc1nc2c(s1)-c1nc(Nc3ccc(C(F)(F)F)cc3)ncc1CC2 [Cpd 2, (2-Methyl-4,5-dihydro-thiazolo[4,5-h]quinazolin-8-yl)-(4-trifluoromethyl-phenyl)-amine] | 7.1 ± 1.3 | 4.4 ± 1.8 | 2.8 ± 1
0.64 ± 0.23 | 0.002 ± 0.001 | 1 | 1.6 ± 0.8 | 0.6 ± 0.12 | 0.009 ± 0.003 | Cc1nc2c(s1)-c1nc(Nc3ccc(O)cc3)ncc1CC2 [Cpd 5, 4-(2-Methyl-4,5-dihydro-thiazolo[4,5-h]quinazolin-8-ylamino)-phenol] | 9.9 ± 1.2 | 6.6 ± 5.8 | 4.2 ± 1.2
0.13 ± 0.03 | 0.021 ± 0.001 | 0.07 ± 0.02 | 2.1 ± 0.7 | 7.5 ± 6.3 | 0.058 ± 0.007 | Cc1nc2c(s1)-c1nc(Nc3ccc(N(C)C)cc3)ncc1CC2 [Cpd 6, N,N-Dimethyl-N′-(2-methyl-4,5-dihydro-thiazolo[4,5-h]quinazolin-8-yl)-benzene-1,4-diamine] | 3.6 ± 1 | 5.3 ± 1.9 | 8 ± 4
3.9 ± 1.4 | 1.18 ± 0.03 | > 80 | 39 ± 19 | 8 ± 2 | 14 ± 6 | Cc1nc2c(s1)-c1nc(N(C)c3cccc([N+](=O)[O-])c3)ncc1CC2 [Cpd 9, Methyl-(2-methyl-4,5-dihydro-thiazolo[4,5-h]quinazolin-8-yl)-(3-nitro-phenyl)-amine] | > 20 | > 20 | > 20
> 20 | 0.001 ± 0.001 | 1.68 ± 0.04 | – | 2.2 ± 0.7 | 1.7 | Cc1nc2c(s1)-c1nc(Nc3ccccc3)ncc1CC2 [Cpd 11, (2-Methyl-4,5-dihydro-thiazolo[4,5-h]quinazolin-8-yl)-phenyl-amine] | – | – | –

Continued, molecule first:

Compound | IC50 (Cyclin H - CDK7) [µM] | IC50 (Cyclin E - CDK2) [µM] | IC50 (Cyclin D1 - CDK4) [µM] | IC50 (Cyclin T - CDK9) [µM] | IC50 (Cyclin B - CDK1) [µM] | IC50 (Cyclin A - CDK2) [µM] | IC50 (HT29) [µM] | IC50 (Saos-2) [µM] | IC50 (A549) [µM]
Cc1nc2c(s1)-c1nc(Nc3cccc([N+](=O)[O-])c3)ncc1CC2 [Cpd 1, (2-Methyl-4,5-dihydro-thiazolo[4,5-h]quinazolin-8-yl)-(3-nitro-phenyl)-amine] | 1.7 ± 0.5 | 0.05 ± 0.04 | 3.8 ± 0.6 | 0.008 | 1 ± 0.2 | 0.56 ± 0.04 | 1.4 ± 0.3 | 1.2 ± 0.7 | 0.68
Cc1nc2c(s1)-c1nc(Nc3cccc(O)c3)ncc1CC2 [Cpd 3, 3-(2-Methyl-4,5-dihydro-thiazolo[4,5-h]quinazolin-8-ylamino)-phenol] | 0.11 ± 0.03 | 0.02 ± 0.01 | 1.1 ± 0.7 | 0.013 | 1.1 ± 0.4 | 0.002 ± 0.001 | 9.4 ± 5.6 | 2.3 ± 1.8 | 2.5 ± 1.2
Cc1nc2c(s1)-c1nc(Nc3ccc(N4CCOCC4)cc3)ncc1CC2 [Cpd 4, (2-Methyl-4,5-dihydro-thiazolo[4,5-h]quinazolin-8-yl)-(4-morpholin-4-yl-phenyl)-amine] | 2.2 ± 0.5 | 0.4 ± 0.1 | > 100 | 0.52 ± 0.06 | 45 ± 25 | 0.91 ± 0.59 | 2.1 ± 2 | 5 ± 0.8 | 3.5 ± 1.4
Cc1nc2c(s1)-c1nc(Nc3ccc(Cl)nc3)ncc1CC2 [Cpd 7, (6-Chloro-pyridin-3-yl)-(2-methyl-4,5-dihydro-thiazolo[4,5-h]quinazolin-8-yl)-amine] | 2.8 ± 0.6 | 0.049 ± 0.002 | 0.075 | 4.1 ± 1.7 | 0.058 ± 0.046 | 0.014 ± 0.006 | 4 ± 0.1 | 4.9 ± 3.4 | 3.3 ± 0.3
COc1ccc(Nc2ncc3c(n2)-c2sc(C)nc2CC3)cn1 [Cpd 8, (6-Methoxy-pyridin-3-yl)-(2-methyl-4,5-dihydro-thiazolo[4,5-h]quinazolin-8-yl)-amine] | 2.3 ± 0.4 | 0.089 ± 0.016 | 0.22 ± 0.19 | 3.3 ± 1.6 | 0.23 ± 0.19 | 0.014 ± 0.012 | 4.7 ± 3.8 | 5 ± 2.7 | 6 ± 5.1
Cc1nc2ccc3cnc(N(C)c4cccc([N+](=O)[O-])c4)nc3c2s1 [Cpd 10, Methyl-(2-methyl-thiazolo[4,5-h]quinazolin-8-yl)-(3-nitro-phenyl)-amine] | 44 ± 11 | 3.2 ± 0.8 | > 40 | > 100 | 22 ± 8 | 47 ± 20 | > 40 | > 40 | > 40
Cc1nc2ccc3cnc(Nc4ccccc4)nc3c2s1 [Cpd 12, (2-Methyl-thiazolo[4,5-h]quinazolin-8-yl)-phenyl-amine] | > 20 | 0.048 ± 0.013 | 5 ± 4 | – | 5.2 ± 1.3 | 4.3 ± 2.5 | – | – | –
Nc1nc2c(s1)-c1nc(Nc3ccccc3)ncc1CC2 [Cpd 13, N^8-Phenyl-4,5-dihydro-thiazolo[4,5-h]quinazoline-2,8-diamine] | 2.5 ± 1 | 0.0007 | 0.61 ± 0.09 | 0.36 ± 0.14 | 1.9 ± 0.7 | 0.92 ± 0.47 | – | – | –
Nc1nc2c(s1)-c1nc(Nc3cccc([N+](=O)[O-])c3)ncc1CC2 [Cpd 14, N^8-(3-Nitro-phenyl)-4,5-dihydro-thiazolo[4,5-h]quinazoline-2,8-diamine] | – | 0.001 ± 0.001 | 0.25 ± 0.12 | – | 0.054 ± 0.016 | 0.022 ± 0.01 | – | – | –

— patent publication US7576091B2, “Thiazolo-, oxazalo and imidazolo-quinazoline compounds capable of inhibiting protein kinases” (Cyclacel Limited, priority 2003, dated 2009)
